From patent publication US20120065198A2, “Detection and Treatment of Schizophrenia” (Tokai University Educational System, priority 2007, published 2012)

What was measured:
pentosidine formation [1] = assay: Inhibitory effects of phenylene derivatives (II) on AGEs (pentosidine) formation; type: biochemical; parameters: AGE Formation Inhibition Ratio (%): concentration or dose not given beside the values; conditions: same method used in Test Example 1
Protocol: (§1) Plasma was collected from hemodialysis patients prior to dialysis with the patients' consent, and the plasma was filtered and sterilized. To the plasma (450 μL) was added solutions of TM-2002 in dimethylsulfoxide (50 μL) (final concentrations: 0.8, 2.0, and 5.0 mM), and the mixtures were incubated for 1 week at 37° C. The levels of the pentosidine formation were measured.
Pentosidine was measured as follows. To each sample (50 μL) after incubation was added an equal volume of 10% trichloroacetic acid, and the mixture was subsequently centrifuged at 5,000 g for 5 minutes. After the supernatant was removed, the pellet was washed with 5% trichloroacetic acid (300 μL). The pellet was dried under reduced pressure, and subsequently hydrolyzed in a 6N HCl solution (100 μL) under a nitrogen atmosphere for 16 hours at 110° C. To the acid hydrolysate was then added 5N NaOH (100 μL) and 0.5 M phosphate buffer (pH 7.4) (200 μL); the mixture was subsequently filtered through a micropore filter with 0.5 μm pores and diluted with PBS. The concentration of the released pentosidine was measured by reverse-phase HPLC using a fluorescence detector (RF-10A, Shimadzu Corporation) (Miyata, T. et al.; Proc. Natl. Acad. Sci. USA, Vol. 93, p. 2353-2358, 1996). The effluent was monitored at the excitation/emission wavelength of 335/385 nm. Synthetic pentosidine was used as the reference material. The detection limit of pentosidine was 0.1 pmol/mg protein. […]

pentosidine formation [2] = assay: Inhibitory activity on pentosidine formation, samples incubated with BSA and arabinose; type: biochemical; conditions: 5 mM drug; incubated with BSA and arabinose instead of patient plasma
Protocol: as §1
Pentosidine was measured as follows. To each sample (50 μL) after incubation was added an equal volume of 10% trichloroacetic acid, and the mixture was subsequently centrifuged at 5,000 g for 5 minutes. After the supernatant was removed, the pellet was washed with 5% trichloroacetic acid (300 μL). The pellet was dried under reduced pressure, and subsequently hydrolyzed in a 6N HCl solution (100 μL) under a nitrogen atmosphere for 16 hours at 110° C. To the acid hydrolysate was then added 5N NaOH (100 μL) and 0.5 M phosphate buffer (pH 7.4) (200 μL); the mixture was subsequently filtered through a micropore filter with 0.5 μm pores and diluted with PBS. The concentration of the released pentosidine was measured by reverse-phase HPLC using a fluorescence detector (RF-10A, Shimadzu Corporation) (Miyata, T. et al.; Proc. Natl. Acad. Sci. USA, Vol. 93, p. 2353-2358, 1996). The effluent was monitored at the excitation/emission wavelength of 335/385 nm. Synthetic pentosidine was used as the reference material. The detection limit of pentosidine was 0.1 pmol/mg protein.
(2) Other edaravone analogues (Compounds (1) or (2)) were investigated for their inhibitory activities on pentosidine formation in the same manner as in Section (1) above, except that the samples were incubated with BSA and arabinose instead of the patient plasma. In the tables, “-” means that the test was not conducted.

SMILES | AGE Formation Inhibition Ratio (%) (pentosidine formation [1]) | Pentosidine Formation Ratio (%) (pentosidine formation [1]) | Pentosidine Formation Ratio (%) at 5 mM Drug Concentration (pentosidine formation [2]) [%]
O=C(O)c1cccc(N(Cc2ccc(-c3ccccc3-c3nnn[nH]3)cc2)C(=O)CCc2ccccc2)c1 [(II-1)] | 80 | 20 | 
CCCCCN(Cc1ccc(C2SC(=O)NC2=O)cc1)c1cccc(C(=O)O)c1 (stereo not drawn) [(II-6)] | 80 | 20 | 
CC1CCc2ccc(C(=O)O)cc2N1Cc1ccc(C2SC(=O)NC2=O)cc1 (stereo not drawn) [(II-7)] | 87 | 13 | 
CS(=O)(=O)N(Cc1ccc(C2SC(=O)NC2=O)cc1)c1ccccc1 (stereo not drawn) [(II-8)] | 81 | 19 | 
CCCCS(=O)(=O)N(Cc1ccc(C2SC(=O)NC2=O)cc1)c1ccccc1 (stereo not drawn) [(II-9)] | 80 | 20 | 
CS(=O)(=O)N(Cc1ccc(C2SC(=O)NC2=O)cc1)c1cccc(C(=O)O)c1 (stereo not drawn) [(II-10)] | 86 | 14 | 
CCCCS(=O)(=O)N(Cc1ccc(C2SC(=O)NC2=O)cc1)c1cccc(C(=O)O)c1 (stereo not drawn) [(II-11)] | 89 | 11 | 
O=C1NC(=O)C(c2ccc(Cn3c(-c4ccccn4)nc4ccccc43)cc2)S1 (stereo not drawn) [(II-15)] | 80 | 20 | 
O=C1NC(=O)C(c2ccc(Cn3ccnc3-c3ccccc3)cc2)S1 (stereo not drawn) [(II-16)] | 85 | 15 | 
CCCc1cc2ccc(C(=O)O)cc2n(Cc2ccc(C3SC(=O)NC3=O)cc2)c1=O (stereo not drawn) [(II-17)] | 84 | 16 | 
O=C1NC(=O)C(c2ccc(CN(C(=O)C3CCCCC3)c3cccc(C(=O)O)c3)cc2)S1 (stereo not drawn) [(II-18)] | 85 | 15 | 
O=C1NC(=O)C(c2ccc(CN(C(=O)c3cccnc3)c3cccc(C(=O)O)c3)cc2)S1 (stereo not drawn) [(II-19)] | 80 | 20 | 
O=C1NC(=O)C(c2ccc(CN(C(=O)CCc3ccccc3)c3cccc(C(=O)O)c3)cc2)S1 (stereo not drawn) [(II-20)] | 92 | 8 | 
O=C1NC(=O)C(c2ccc(CN(C(=O)c3ccc(-c4ccccc4)cc3)c3cccc(C(=O)O)c3)cc2)S1 (stereo not drawn) [(II-21)] | 98 | 2 | 
O=C1NC(=O)C(c2ccc(CN(c3cccc(C(=O)O)c3)S(=O)(=O)c3ccccc3)cc2)S1 (stereo not drawn) [(II-22)] | 85 | 15 | 
Cc1ccc(S(=O)(=O)N(Cc2ccc(C3SC(=O)NC3=O)cc2)c2cccc(C(=O)O)c2)cc1 (stereo not drawn) [(II-23)] | 90 | 10 | 
O=C1NC(=O)C(c2ccc(CN(c3cccc(C(=O)O)c3)S(=O)(=O)c3ccc(-c4ccccc4)cc3)cc2)S1 (stereo not drawn) [(II-24)] | 91 | 9 | 
O=C1NC(=O)C(c2ccc(CN(c3cccc(C(=O)O)c3)S(=O)(=O)c3ccc4ccccc4c3)cc2)S1 (stereo not drawn) [(II-25)] | 99 | 1 | 
CCCC1CCc2ccc(C(=O)O)cc2N(Cc2ccc(C3SC(=O)NC3=O)cc2)C1=O (stereo not drawn) [(II-28)] | 84 | 16 | 

SMILES | AGE Formation Inhibition Ratio (%) (pentosidine formation [1]) | Pentosidine Formation Ratio (%) (pentosidine formation [1]) | Pentosidine Formation Ratio (%) at 5 mM Drug Concentration (pentosidine formation [2]) [%]
CC1(C)Cc2ccc(C(=O)O)cc2N(Cc2ccc(C3SC(=O)NC3=O)cc2)C1=O (stereo not drawn) [(II-29)] | 86 | 14 | 
O=C1NC(=O)C(c2ccc(CN3C(=O)C4(CC4)Cc4ccc(C(=O)O)cc43)cc2)S1 (stereo not drawn) [(II-30)] | 87 | 13 | 
O=C(O)c1cccc(N(CCc2ccccc2)Cc2ccc(-c3ccccc3-c3nnn[nH]3)cc2)c1 [(II-32)] | 81 | 19 | 
Cc1oc(-c2ccccc2)nc1CC(=O)N(Cc1ccc(C2SC(=O)NC2=O)cc1)c1cccc(C(=O)O)c1 (stereo not drawn) [(II-33)] | 82 | 18 | 
O=C(O)c1cccc(N(CC(=O)c2ccccc2)Cc2ccc(-c3ccccc3-c3nnn[nH]3)cc2)c1 [(II-42)] | 93 | 7 | 
Cc1nc(-c2ccc(S(=O)(=O)N(Cc3ccc(C4SC(=O)NC4=O)cc3)c3cccc(C(=O)O)c3)cc2)cs1 (stereo not drawn) [(II-63)] | 80 | 20 | 
O=C1NC(=O)C(c2ccc(CN(Cc3ccc(-c4ccccc4)cc3)c3cccc(C(=O)O)c3)cc2)S1 (stereo not drawn) [(II-68)] | 80 | 20 | 
CC1=NN(c2ccccc2)C(=O)C1CCC(=O)O (stereo not drawn) [compound 7] |  |  | 64.64
CC1=NN(c2ccccc2)C(=O)C1C(c1ccccc1)c1c(C)nn(-c2ccccc2)c1O (stereo not drawn) [compound 9, 4-[(5-hydroxy-3-methyl-1-phenyl-1H-pyrazol-4-yl)-phenyl-methyl]-5-methyl-2-phenyl-2,4-dihydro-pyrazol-3-one] |  |  | 7.52
CC(=O)NC1C(=O)N(c2ccccc2)N=C1C (stereo not drawn) [compound 12, N-(3-methyl-5-oxo-1-phenyl-4,5-dihydro-1H-pyrazol-4-yl)-acetamide] |  |  | 54.21
CC1=NN(c2cccc([N+](=O)[O-])c2)C(=O)C1Sc1nnnn1-c1ccccc1 (stereo not drawn) [compound 13, 5-methyl-2-(3-nitro-phenyl)-4-(1-phenyl-1H-tetrazol-5-ylsulfanyl)-2,4-dihydro-pyrazol-3-one] |  |  | 74.66
O=C(NC1=NN(c2ccccc2)C(=O)C1Sc1nnnn1-c1ccccc1)c1ccccc1 (stereo not drawn) [compound 14, N-[5-oxo-1-phenyl-4-(1-phenyl-1H-tetrazol-5-ylsulfanyl)-4,5-dihydro-1H-pyrazol-3-yl]-benzamide] |  |  | 61.27
CC1=NN(c2ccccc2)C(=O)C1C1C(=O)N(c2ccccc2)N=C1C (stereo not drawn) [compound 17, 5,5′-dimethyl-2,2′-diphenyl-2,4,2′,4′-tetrahydro [4,4′]bipyrazole-3,3′-dione] |  |  | 60.96
COc1ccc(-c2csc(SC3C(=O)N(c4ccccc4)N=C3C)n2)cc1 (stereo not drawn) [compound 19] |  |  | 40.19
CCCC1=NN(c2ccccc2)C(=O)C1CC(=O)c1ccccc1 (stereo not drawn) [compound 20] |  |  | 83.12
CC1=NN(c2ccccc2)C(=O)C1Sc1nc(-c2ccc(C)cc2)cs1 (stereo not drawn) [compound 21, 5-methyl-2-phenyl-4-(4-p-toluyl-thiazol-2-ylsulfanyl)-2,4-dihydro-pyrazole-3-one] |  |  | 42.07
CC1=NN(c2ccc(F)cc2)C(=O)C1C(c1ccccc1O)c1c(C)nn(-c2ccc(F)cc2)c1O (stereo not drawn) [compound 22, 2-(4-fluoro-phenyl)-4-[[1-(4-fluoro-phenyl)-5-hydroxy-3-methyl-1H-pyrazol-4-yl]-(2-hydroxy-phenyl)-methyl]-5-methyl-2,4-dihydro-pyrazol-3-one] |  |  | 2.9
CC1=NN(c2ccccc2)C(=O)C1(O)S(=O)(=O)[O-].[Na+] (stereo not drawn) [compound 25, sodium 4-hydroxy-3-methyl-5-oxo-1-phenyl-4,5-dihydro-1H-pyrazole-4-sulfonate] |  |  | 38.80
